Data as given in US8106063B2, “Pyrimidyl sulphone amide derivatives as chemokine receptor modulators” (AstraZeneca AB, priority 2002, dated 2012).

Target: T1, hrCXCR2 (Homo sapiens, UniProt P25025)
T1 construct: expressed in transfected cells; host or cells: HEK 293 cells (ECACC No. 85120602), membranes of the highest expressing clone
T1 sequence (P25025 1-360): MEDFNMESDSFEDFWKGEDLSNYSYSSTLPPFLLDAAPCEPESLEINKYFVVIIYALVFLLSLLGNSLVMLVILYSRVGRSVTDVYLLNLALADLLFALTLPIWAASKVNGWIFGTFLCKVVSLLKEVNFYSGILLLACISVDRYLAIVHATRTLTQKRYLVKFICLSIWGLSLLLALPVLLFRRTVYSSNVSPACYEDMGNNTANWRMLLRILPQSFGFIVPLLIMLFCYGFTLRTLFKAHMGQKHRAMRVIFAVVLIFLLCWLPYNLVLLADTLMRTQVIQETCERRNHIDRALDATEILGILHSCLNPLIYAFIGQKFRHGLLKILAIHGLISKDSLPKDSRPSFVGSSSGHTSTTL
Experiment: Ligand binding assay ([125I]IL-8 binding to hrCXCR2 membranes)
Settings: ~50 pM [125I]IL-8, membranes of HEK 293 cells expressing hrCXCR2, 1.5 hours at room temperature

IC50: 158 nM
Compound: Cc1cccc(CSc2nc(NC(C)(C)CO)cc(NS(C)(=O)=O)n2)c1F [Example 116, N-{2-[(2-Fluoro-3-methylbenzyl)thio]-6-[(2-hydroxy-1,1-dimethylethyl)amino]-pyrimidin-4-yl}methanesulfonamide]
